The structures appear in SMILES notation. Where two headings read alike, the source gives them in different places.

For the assay, the system named is HCV replicon. The assay is described as follows: microbe, parasite or virus in culture. It counts as cell-based. The note with it: read-out: Replicon IC5Os.
[1] abbreviates: Replicon IC50 values are determined by firefly luciferase signal, bicistronic replicon, 2 days.

As to `CCn1c(-c2ccc(NS(C)(=O)=O)cc2)c(C#N)c2ccc(OCCN3CCN(C)CC3)cc21` [Compound 481], under setting [1], the IC50 was > 2000 nM. As for `CCn1c(-c2ccc(NS(C)(=O)=O)cc2)c(C#N)c2ccc(OCCN(C)CCOC)cc21` [Compound 482], the IC50 under setting [1] was in the range of 500 to 2000 nM.

In the case of `CCn1c(-c2cccc(N)c2)c(C#N)c2cc(OC)ccc21` [Compound 483], under setting [1], the IC50 was > 2000 nM. Turning to `CCn1c(-c2nc3ccccc3s2)c(C#N)c2ccc(OC)cc21` [Compound 484], the IC50 under setting [1] was > 2000 nM.

Take `CCOC(=O)Nc1cccc(-c2c(C#N)c3cc(-c4cccc(OC)c4)ccc3n2CC)c1` [Compound 485]: the IC50 under setting [1] is > 2000 nM. Same read-out and setting: the value for `CCCOC(=O)Nc1cccc(-c2c(C#N)c3cc(-c4cccc(OC)c4)ccc3n2CC)c1` [Compound 486] was 500 to 2000 nM; that for `CCn1c(-c2ccc(NS(C)(=O)=O)cc2)c(C#N)c2cc(-c3cccc(OC)c3)ccc21` [Compound 487] was 500 to 2000 nM. Still for that read-out and setting: the value for `CCn1c(-c2ccc(NS(=O)(=O)CC)cc2)c(C#N)c2cc(-c3cccc(OC)c3)ccc21` [Compound 488] was < 500 nM; that for `CCn1c(-c2cccc(NC(=O)OCC3CCCC3)c2)c(C#N)c2ccc(OC)cc21` [Compound 489] was 500 to 2000 nM.

Turning to `CCn1c(-c2cccc(NC(=O)OC3CCCC3)c2)c(C#N)c2ccc(OC)cc21` [Compound 490], under setting [1], the IC50 was 500 to 2000 nM.

With `CCOC(=O)Nc1cccc(-c2c(C#N)c3ccc(OCCn4cncn4)cc3n2CC)c1` [Compound 491], under setting [1], the IC50 was > 2000 nM. Regarding `CCOC(=O)Nc1cccc(-c2c(C#N)c3ccc(OCCN4CCOCC4)cc3n2CC)c1` [Compound 492], the IC50 (Hepatitis C virus, 48 h) lay in the range of 500 to 2000 nM. On the same count and under the same terms, the value for `CCOC(=O)Nc1cccc(-c2c(C#N)c3ccc(OCCCN4CCOCC4)cc3n2CC)c1` [Compound 493] was < 500 nM. Turning to `CCOC(=O)Nc1cccc(-c2[nH]c3cc(OC)ccc3c2C#N)c1` [Compound 494], the IC50 under setting [1] was > 2000 nM.

For the molecule `CCn1c(-c2ccc(NS(C)(=O)=O)cc2)c(C#N)c2ccc(OCCn3ccnc3)cc21` [Compound 496], the IC50 under setting [1] is 500 to 2000 nM. The same measure, in the same setting: the value for `CCn1c(-c2ccc(NS(C)(=O)=O)cc2)c(C#N)c2ccc(OCCn3cncn3)cc21` [Compound 497] was > 2000 nM; that for `CCn1c(-c2cccc(NC(=O)OCc3ccc(C(C)C)cc3)c2)c(C#N)c2ccc(OC)cc21` [Compound 500] was > 2000 nM. Same read-out and setting: the value for `CCn1c(-c2cccc(NC(=O)OC3CCOC3)c2)c(C#N)c2ccc(OC)cc21` (centres unmarked) [Compound 502] was > 2000 nM. The same measure, in the same setting: the value for `CCn1c(-c2cccc(NC(=O)O[C@@H]3CCOC3)c2)c(C#N)c2ccc(OC)cc21` [Compound 503] was > 2000 nM. In the case of `CCOC(=O)Nc1cccc(-c2c(C#N)c3ccc(OCCCl)cc3n2CC)c1` [Compound 504], the IC50 under setting [1] is > 2000 nM.

Consider `CCn1c(-c2cccc(NS(=O)(=O)CC)c2)c(C#N)c2cc(OC)ccc21` [Compound 505], for which the IC50 under setting [1] was > 2000 nM.

`CCOC(=O)Nc1cccc(-c2c(C#N)c3cc(OC)ccc3n2CC)c1` [Compound 506]: the IC50 under setting [1] was > 2000 nM. Consider `CCn1c(-c2cccc(NC(=O)OC(C)C)c2)c(C#N)c2cc(OC)ccc21` [Compound 507], for which, under setting [1], the IC50 is > 2000 nM. Same read-out and setting: the value for `CCCOC(=O)Nc1cccc(-c2c(C#N)c3cc(OC)ccc3n2CC)c1` [Compound 508] was > 2000 nM.

Consider `CCn1c(-c2cccc(NC(=O)OCCCCl)c2)c(C#N)c2cc(OC)ccc21` [Compound 509], for which the IC50 under setting [1] was > 2000 nM.

In the case of `CCCNC(=O)Nc1cccc(-c2c(C#N)c3cc(OC)ccc3n2CC)c1` [Compound 511], the IC50 under setting [1] was > 2000 nM.

With `CCOC(=O)NC(=O)Nc1cccc(-c2c(C#N)c3cc(OC)ccc3n2CC)c1` [Compound 512], the IC50 under setting [1] is > 2000 nM. On to `CCn1c(-c2cccc(NC(=O)Nc3cccc(C(F)(F)F)c3)c2)c(C#N)c2cc(OC)ccc21` [Compound 513], for which the IC50 under setting [1] was > 2000 nM. For `CCn1c(NC)c(C#N)c2ccc(C(F)(F)F)cc21` [Compound 514], the IC50 under setting [1] was > 2000 nM.

Take `CCS(=O)(=O)Nc1ccc(-c2cc3ccc(OC(F)F)cc3n2C)cc1` [Compound 515]: under setting [1], the IC50 fell in the range of 500 to 2000 nM. Same read-out and setting: the value for `CCS(=O)(=O)Nc1ccc(-c2cc3ccc(OC(F)F)cc3n2C(C)C)cc1` [Compound 517] was > 2000 nM; that for `CCCn1c(-c2ccc(NS(=O)(=O)CC)cc2)c(C#N)c2ccc(OC(F)F)cc21` [Compound 522] was < 500 nM; that for `CCS(=O)(=O)Nc1ccc(-c2c(C#N)c3ccc(OC(F)F)cc3n2C(C)C)cc1` [Compound 524] was < 500 nM. With `CCOC(=O)Nc1cccc(-c2c(C#N)c3ccc(OCCCn4ccnc4)cc3n2CC)c1` [Compound 525], the IC50 (Hepatitis C virus, 48 h) was in the range of 500 to 2000 nM. `CCOC(=O)Nc1cccc(-c2c(C#N)c3ccc(OCCCN4CCN(C)CC4)cc3n2CC)c1` [Compound 526]: the IC50 (Hepatitis C virus, 48 h) is < 500 nM. Take `CCOC(=O)Nc1cccc(-c2c(C#N)c3ccc(OCCCN4CCSCC4)cc3n2CC)c1` [Compound 527]: under setting [1], the IC50 was in the range of 500 to 2000 nM. On to `CCOC(=O)Nc1cccc(-c2c(C#N)c3ccc(OCCCN4CCCCC4)cc3n2CC)c1` [Compound 528], for which the IC50 under setting [1] was 500 to 2000 nM. Same read-out and setting: the value for `CCOC(=O)Nc1cccc(-c2c(C#N)c3ccc(OCCCn4ccnn4)cc3n2CC)c1` [Compound 529] was 500 to 2000 nM. Regarding `CCOC(=O)Nc1cccc(-c2c(C#N)c3ccc(OCCCN(C)CCOC)cc3n2CC)c1` [Compound 531], the IC50 (Hepatitis C virus, 48 h) lay within 500 to 2000 nM.

Turning to `CCOC(=O)Nc1ccc(-c2c(C#N)c3ccc(OCCCn4ccnc4)cc3n2CC)cc1` [Compound 532], under “Hepatitis C virus, 48 h”, the IC50 lay in the range of 500 to 2000 nM. Consider `CCOC(=O)Nc1ccc(-c2c(C#N)c3ccc(OCCCN4CCN(C)CC4)cc3n2CC)cc1` [Compound 533], for which the IC50 (Hepatitis C virus, 48 h) lay in the range of 500 to 2000 nM. With `CCOC(=O)Nc1ccc(-c2c(C#N)c3ccc(OCCCN4CCSCC4)cc3n2CC)cc1` [Compound 534], the IC50 (Hepatitis C virus, 48 h) was < 500 nM. On to `CCOC(=O)Nc1ccc(-c2c(C#N)c3ccc(OCCCN4CCCCC4)cc3n2CC)cc1` [Compound 535], for which the IC50 (Hepatitis C virus, 48 h) is < 500 nM. On the same count and under the same terms, the value for `CCOC(=O)Nc1ccc(-c2c(C#N)c3ccc(OCCCn4ccnn4)cc3n2CC)cc1` [Compound 536] was 500 to 2000 nM; that for `CCOC(=O)Nc1ccc(-c2c(C#N)c3ccc(OCCCN4CCCC4)cc3n2CC)cc1` [Compound 537] was < 500 nM; that for `CCOC(=O)Nc1ccc(-c2c(C#N)c3ccc(OCCCn4cncn4)cc3n2CC)cc1` [Compound 538] was 500 to 2000 nM.

With `CCOC(=O)Nc1ccc(-c2c(C#N)c3ccc(OCCCN4CCOCC4)cc3n2CC)cc1` [Compound 539], the IC50 (Hepatitis C virus, 48 h) is < 500 nM. With `CCn1c(-c2cccc(NS(=O)(=O)NC)c2)c(C#N)c2ccc(OC)cc21` [Compound 540], the IC50 under setting [1] fell in the range of 500 to 2000 nM. Same read-out and setting: the value for `CCNS(=O)(=O)Nc1cccc(-c2c(C#N)c3ccc(OC)cc3n2CC)c1` [Compound 541] was > 2000 nM; that for `CCCOC(=O)Nc1ccc(-c2c(C#N)c3ccc(OCCF)cc3n2CC)cc1` [Compound 547] was < 500 nM.

On to `COc1ccc2c(C#N)c(-c3cccc(NC(=O)OCCCl)c3)n(C(C)C)c2c1` [Compound 553], for which the IC50 under setting [1] was > 2000 nM. Same read-out and setting: the value for `C#CCOC(=O)Nc1cccc(-c2c(C#N)c3ccc(OC)cc3n2C(C)C)c1` [Compound 554] was > 2000 nM; that for `COCCOC(=O)Nc1cccc(-c2c(C#N)c3ccc(OC)cc3n2C(C)C)c1` [Compound 555] was > 2000 nM.
